Data set [1] can be described thus: Metabolic stability in dog liver microsomes. In kind it is in vitro ADME. How it is done: The experiment was intended to study the metabolic stability of the compounds of the present invention in dog and mouse liver microsomes.
A test compound and the compound of Comparative Example 1 were incubated with dog and mouse liver microsomes (the Corning Company. USA) respectively, and a coenzyme NADPH was added to start the reaction. 135 μL of acetonitrile containing an internal standard (IS) was added to wells of a corresponding plate after 0, 5, 15, 30 and 45 minutes respectively to terminate the reaction. After protein precipitation, the solution was centrifuged at 5.594 rpm for 15 minutes, and a supernatant was taken. The supernatant was diluted with water by 1:1 (volume ratio) and then analyzed by a LC-MS/MS method. Ketanserin was used as an internal reference compound, and two copies of Ketanserin were incubated in parallel.
A peak area ratio of analyte/internal standard (Aanalyte/A1s) was obtained by an instrument, and a remaining percentage (% Control) was calculated by ratios of Aanalyte/A1s in a sample at a non-zero time point and a sample at a zero time point. Ln (% Control) was plotted and fitted linearly with the incubation time. A scavenging constant (k, min^−1) and a scavenging half-life (T1/2, min) of the tested compound were calculated by the following equation.

Data set [2] is described as follows: Pharmacokinetics in SD rat. In kind it is in vivo. The following applies: male, plasma; for AUC(0-t): read-out: Curve area AUC0-t; for half-life: read-out: Half-life period T1/2(h) (converted). The procedure:
Taking a SD rat as a test animal, the SD rat was administrated with the compound of the present invention by intravenous injection and/or intragastric administration, and drug concentrations in plasma at different times were determined by a IC/MS/MS method to study pharmacokinetic characteristics of the compound of the present invention in the SD rat.
SD rats, male, 195 g to 235 g, 6 weeks old to 8 weeks old, purchased from Shanghai JieSiJie Laboratory Animal Co., Ltd.
Preparation of drug administrated by intravenous injection: a proper amount of compound to be tested was added to a proper amount of DMAC; (30% Soltol HS 15): Saline=10%: 10%: 80% (v/v/v), and shaken in a vortex manner, so as to prepare a final solution with a concentration of 0.5 mg/mL.
Preparation of drug administrated by intragastric administration: a proper amount of compound to be tested was added to a proper amount of DMAC: (30% Soltol HS 15): Saline=10%: 10%: 80% (v/v/v), and shaken in a vortex manner, so as to prepare a final solution with a concentration of 1 mg/mL.
SD rats were divided into an intravenous injection group of the compound to be tested (3 rats/group) and an intragastric administration group (3 rats/group) of the compound to be tested.
Intravenous injection group: the drug was administrated by dorsalis pedis vein injection (according to a dosage of 1 mg/kg and a volume of 2 mL/kg) without fasting.
Intragastric administration group: the drug was administrated by intragastric administration (according to a dosage of 10 mg/kg and a volume of 10 mL/kg) after fasting overnight, and food was taken 4 hours after administration.
Intravenous injection group: about 150 μL of blood was collected into an EDTA-K2 anticoagulant tube through a jugular vein 0.083 hour, 0.25 hour, 0.5 hour, 1 hour, 2 hours, 4 hours, 8 hours and 24 hours after administration.
Intragastric administration group; about 150 μL of blood was collected into an EDTA-K2 anticoagulant tube through a jugular vein 0.25 how, 0.5 hour, 1 hour, 2 hours, 4 hours, 8 hours and 24 hours after administration.
The blood sample was stored in wet ice first, and plasma was centrifugally separated within 15 minutes after sampling (centrifugation conditions: 2,000 g, 4° C., 5 minutes). The collected upper plasma was stored at −70° C. before analysis.
Contents of the compound to be tested in rat plasma after intravenous injection and intragastric administration were determined by LC-MS/MS.

The nature of data set [3]: Pharmacokinetics in ICR mouse. In kind it is in vivo. As to conditions: male, plasma; for AUC(0-t): read-out: Curve area AUC0-t; for half-life: read-out: Half-life period T1/2(h) (converted). How it is done: Taking an ICR mouse as a tested animal, the ICR mouse was administrated with the compound in Example 96 of the present invention by intravenous injection and intragastric administration, and drug concentrations in plasma at different times were determined by a LC/MS/MS method to study pharmacokinetic characteristics of the compound of the present invention in the mouse.
ICR mice, male, 29.2 g to 34.9 g, purchased from Beijing Vital River Laboratory Animal Technology Co., Ltd.
Preparation of drug administrated by intravenous injection: a proper amount of compound to be tested was added to a proper amount of DMAC: (30% Soltol HS 15): Saline=10%: 10%: 80% (v/v/v), and shaken in a vortex manner, so as to prepare a final solution with a concentration of 0.2 mg/mL.
Preparation of drug administrated by intragastric administration: a proper amount of compound to be tested was added to a proper amount of DMA: (30% Soltol HS 15): Saline=10%: 10%: 80% (v/v/v), and shaken in a vortex manner, so as to prepare a final solution with a concentration of 0.5 mg/mL.
ICR mice were divided into an intravenous injection group and an intragastric administration group (9 rats in single group).
Intravenous injection group: the drug was administrated by intravenous injection (according to a dosage of 1 mg/kg and a volume of 5 mL/kg) without fasting.
Intragastric administration group: the drug was administrated by intragastric administration (according to a dosage of 5 mg/kg and a volume of 10 mL/kg) after fasting overnight, and food was taken 4 hours after administration.
Intravenous injection group: about 80 μL of blood was collected into an EDTA-K2 anticoagulant tube through an orbit 0.083 hour, 0.25 hour, 0.5 hour, 1 hour, 2 hours, 4 hours, 8 hours, 12 hours and 24 hours after administration.
Intragastric administration group: about 80 μL of blood was collected through an orbit 0.25 hour, 0.5 hour, 1 hour, 2 hours, 4 hours, 8 hours, 12 hours and 24 hours before and after administration.
The whole blood sample was placed in an EDTA-K2 anticoagulant tube. Plasma was centrifugally separated (centrifugation conditions: 1,500 g, 10 minutes). The collected upper plasma was stored al −40° C. to −20° C. before analysis.
Contents of the compound to be tested in mouse plasma after intravenous and intragastric administration were determined by LC-MS/MS.

The mark [4] stands for this setting: iv, injection administration 1 mg/kg.
[5] abbreviates: po, intragastric administration 10 mg/kg.
Where [6] appears, read: po, intragastric administration 5 mg/kg.

Results on 1 compound are retold here after US20230373972A1, “PIPERAZINE DERIVATIVE, PREPARATION METHOD THEREFOR AND USE THEREOF” (Zhejiang Hisun Pharmaceutical Co., Ltd., priority 2020, published 2023).

With `COCC[C@@H](C(=O)Nc1ccc2nn(C)cc2c1)N1CC(=O)N(c2cc(Cl)ccc2-n2cc(Cl)nn2)CC1=O` [Example 96, (S)-2-(4-(5-chloro-2-(4-chloro-1H-1,2,3-triazol-1-yl)phenyl)-2,5-dioxopiperazin-1-yl)-4-methoxy-N-(2-methyl-2H-indazol-5-yl)butanamide], in data set [1] (dog liver microsomes 0.5 mg/mL, 1 μM compound, NADPH, read-out: Half-life period (T1/2 min) Dog), the half-life at 1 μM was 15.3 h. The “Half-life period and stability compared with Comparative Example 1” value in data set [1] (dog liver microsomes, in words) was “longer half-life period and a higher stability”. Further, the AUC(0-t) in data set [2] (setting [4]) was 532 ± 87.8 ng·h/mL; in data set [2] (setting [5]), 3860 ± 728 ng·h/mL; in data set [3] (setting [4]), 1240 ng·h/mL; in data set [3] (setting [6]), 4330 ng·h/mL. The half-life was 0.942 ± 0.078 h in data set [2] (setting [4]), 1.54 ± 0.784 h in data set [2] (setting [5]), 0.664 h in data set [3] (setting [4]) and 1.84 h in data set [3] (setting [6]). The bioavailability (as a rule, dose-corrected exposure relative to a reference, in per cent) in data set [2] (po, intragastric 10 mg/kg vs injection 1 mg/kg, read-out: Bioavailability F(%)) is 72.5 ± 13.7%; in data set [3] (po, intragastric 5 mg/kg vs injection 1 mg/kg, read-out: Bioavailability F(%)) it was 69.8%. In addition, the Cmax in data set [2] (po, intragastric administration 10 mg/kg, read-out: Blood concentration Cmax) amounted to 1790 ± 510 ng/mL; in data set [3] (po, intragastric administration 5 mg/kg, read-out: Blood concentration Cmax), 2040 ng/mL.
